Data: patent publication US6376670B1, “Quinoline-indole antimicrobial agents, uses and compositions related thereto” (Sepracor Inc., priority 1997, dated 2002)
Read-outs that look alike come from different tables or passages of the source.

Tests used:
[1] = tested on: methicillin-resistant Staphylococcus aureus (MRSA); test: Determination of MIC values (BHI broth, 96 well microtiter plate); type: cell-based; details: Staphylococcus aureus, MRSA, BHI broth, read-out: MIC MRSA
Description: (§1) Stock solutions of compounds are prepared with a concentration of 10 mg/mL. These solutions are then diluted 1:4 to give a concentration of 2.5 mg/mL. The compounds are then serially diluted 1:2 for 6 iterations. The concentrations made for each compound are 2.5, 1.25, 0.625, 0.3125, 0.156, 0.078, and 0.039 mg/mL. A control sample (no compound) is run along with each compound tested. All dilutions are made in DMSO.
(§2) All wells of a 96 well microtiter plate are filled with 100 μL of BHI (Brain-Heart Infusion) broth. Columns on the plate are labeled 1-12, and rows are labeled A-H. Each column of wells is used to test one series of diluted compounds. Into each well of 100 μL of BHI broth, 1 μL of diluted compound is placed for a 1:100 dilution. This makes the final concentration of each drug series 25, 12.5, 6.25, 3.125, 1.56, 0.78, 0.39, and 0 μg/mL.
(§3) Test Organism: A sterile 15 mL screw cap tube is filled wth 3 mL of BHI broth. Next, 2-3 colonies of test organism are inoculated into the tube. The tube is then incubated at 37° C. in a CO2 (approx. 7%) atmosphere jar. The organisms are allowed to grow to the density of a 0.5 McFarland standard (10^8 cells/mL). The organism is then inoculated into each well of the microtiter plate containing the diluted compounds to be tested for MIC. The inoculum is 1 μL in volume and represents 10^5 to 10^6 cells/mL.
(§4) After inoculation the plates are covered and incubated at 37° C. and approx. 7-10% CO2 atmosphere overnight (about 16 hours). The plates are then observed for growth, the well with the lowest concentration of drug and no observable growth represents the well determining the MIC.

[2] = tested on: vancomycin-resistant Enterococcus spp. (VRE); test: as above; type: cell-based; details: Enterococcus, VRE, BHI broth, read-out: MIC VREF
Description: as §1, §2, §3, §4

[3] = 16 h, 37° C., overnight (about 16 hours)

Compound | MIC [1, 3] | MIC [2, 3] | further results
COc1ccc2c(c1)c(-c1ccc3cc(Cl)ccc3n1)cn2C [Example 214] | – | – | MIC ([1]; overnight 37° C.): < 25 µg/mL; MIC ([2]; VREF, overnight 37° C.): > 25 µg/mL
NCc1ccc(CNC(=O)c2cc(-c3csc4ccc(Cl)cc34)nc3ccc(I)cc23)cc1 [Example 140] | > 25 µg/mL | < 25 µg/mL | –
O=C(c1cc(-c2c[nH]c3ccccc23)nc2ccccc12)N1CCNCC1 [compound 8] | > 25 µg/mL | > 25 µg/mL | –
CNCc1ccc(CNCc2cc(-c3c[nH]c4ccc(Br)cc34)nc3ccccc23)cc1 [Example 50] | < 7 µg/mL | < 25 µg/mL | –
NCc1ccc(CNC(=O)c2cc(-c3c(-c4ccccc4)[nH]c4ccccc34)nc3ccccc23)cc1 [Example 22] | > 25 µg/mL | > 25 µg/mL | –
NCc1ccc(CNC(=O)c2cc(-c3c[nH]c4ccc(Br)cc34)nc3ccc(OC(F)(F)F)cc23)cc1 [Example 55] | < 7 µg/mL | < 7 µg/mL | –
Cc1cc2nc(-c3c[nH]c4ccc(Br)cc34)cc(C(=O)NCc3cccc(CN)c3)c2cc1C [Example 129] | < 7 µg/mL | < 7 µg/mL | –
Cc1ccc2nc(-c3c[nH]c4ccc(C#N)cc34)ccc2c1 [Example 433] | – | – | MIC ([1]; 16 h, 37° C., about 16 hours): < 7 µg/mL; MIC ([2]; 16 h, 37° C., about 16 hours): > 25 µg/mL
O=C(c1cc(-c2c[nH]c3ccc(Br)cc23)nc2ccccc12)N1CCC(N2CCCCC2)CC1 [Example 47] | < 25 µg/mL | < 25 µg/mL | –
Cc1[nH]c2ccccc2c1-c1cc(C(=O)NCc2ccc(CN)cc2)c2ccccc2n1 [Example 23] | > 25 µg/mL | > 25 µg/mL | –
CN(CC#Cc1ccc2c(C(=O)NCc3ccc(CN)cc3)cc(-c3c[nH]c4ccc(Br)cc34)nc2c1)C1CCCCC1 [Example 264] | – | – | MIC ([1]; overnight 37° C.): < 7 µg/mL; MIC ([2]; VREF, overnight 37° C.): < 25 µg/mL
NCc1ccc(CNC(=O)c2ccc3nc(-c4c[nH]c5ccc(Br)cc45)ccc3c2)cc1 [compound 6] | > 25 µg/mL | > 25 µg/mL | –
NCc1ccc(CNC(=O)c2cc(-c3c[nH]c4ccc(Br)cc34)nc3ccc(C#CCN4CCOCC4)cc23)cc1 [Example 74] | < 7 µg/mL | < 25 µg/mL | –
Cn1cc(-c2cc(C(=O)NCc3ccc(CN)cc3)c3cc(I)ccc3n2)c2cc(Br)ccc21 [Example 269] | – | – | MIC ([1]; overnight 37° C.): < 7 µg/mL; MIC ([2]; VREF, overnight 37° C.): < 7 µg/mL
COc1ccc(NC(=O)N2CCN(C(=O)c3cc(-c4c[nH]c5ccc(Br)cc45)nc4ccccc34)CC2)c(OC)c1 [Example 63] | > 25 µg/mL | > 25 µg/mL | –
O=C(c1cc(-c2c[nH]c3ccc(Br)cc23)nc2ccccc12)N1CCN(c2ccc(F)cc2)CC1 [Example 32] | < 25 µg/mL | < 25 µg/mL | –
Cc1c(-c2c[nH]c3ccc(Br)cc23)nc2ccc(I)cc2c1C(=O)NCc1ccc(CN)cc1 [Example 152] | < 7 µg/mL | < 25 µg/mL | –
N[C@H](Cc1c[nH]cn1)C(=O)NCc1ccc(CNC(=O)c2cc(-c3c[nH]c4ccc(Br)cc34)nc3ccccc23)cc1 [Example 73] | < 25 µg/mL | < 25 µg/mL | –
NC1CCN(C(=O)c2cc(-c3c[nH]c4ccc(Br)cc34)nc3ccccc23)C1 (centres unmarked) [Example 43] | < 25 µg/mL | < 25 µg/mL | –
O=C(NCc1ccc(CNC(=O)c2cc(-c3c[nH]c4ccc(Br)cc34)nc3ccccc23)cc1)Nc1ccc(C(F)(F)F)cc1 [Example 85] | < 7 µg/mL | < 25 µg/mL | –
NCc1ccc(CNC(=O)c2cc(-c3ccncc3)nc3ccc(Br)cc23)cc1 [Example 94] | > 25 µg/mL | > 25 µg/mL | –
O=C(c1cc(C23CC4CC(CC(C4)C2)C3)nc2ccccc12)N1CCNCC1 [Example 25] | > 25 µg/mL | > 25 µg/mL | –
NCc1ccc(CNC(=O)c2cc(-c3c[nH]c4ccc(Br)cc34)nc3ccc(CO)cc23)cc1 [Example 100] | > 25 µg/mL | > 25 µg/mL | –
Cc1cccc2c(-c3ccc4ccccc4n3)c[nH]c12 [Example 189] | < 25 µg/mL | < 25 µg/mL | –
NC(=O)C(Cc1ccc([N+](=O)[O-])cc1)NC(=O)c1cc(-c2c[nH]c3ccc(Br)cc23)nc2ccccc12 (centres unmarked) [Example 149] | < 7 µg/mL | > 25 µg/mL | –
NC(=O)C1CCCN(C(=O)c2cc(-c3c[nH]c4ccc(Br)cc34)nc3ccccc23)C1 (centres unmarked) [Example 46] | < 25 µg/mL | < 25 µg/mL | –
NCc1ccc(CNC(=O)c2cc(-c3c[nH]c4ccc(Br)cc34)nc3ncccc23)cc1 [Example 162] | > 25 µg/mL | > 25 µg/mL | –
NCc1ccc(CNCc2cc(-c3c[nH]c4ccc(Br)cc34)nc3ccccc23)cc1 [Example 39] | < 7 µg/mL | < 7 µg/mL | –

Compound | MIC [1, 3] | MIC [2, 3] | further results
NCc1ccc(CNC(=O)c2cc(-c3c[nH]c4cc(Cl)ccc34)nc3ccccc23)cc1 [Example 20] | < 25 µg/mL | < 25 µg/mL | –
NCc1ccc(CNC(=O)c2cc(-c3c[nH]c4ccccc34)nc3c(Cl)cccc23)cc1 [Example 160] | < 25 µg/mL | < 25 µg/mL | –
O=C(NCc1ccc(CNC(=O)c2cc(-c3c[nH]c4ccc(Br)cc34)nc3ccccc23)cc1)Nc1ccccc1 [Example 40] | > 25 µg/mL | > 25 µg/mL | –
NCc1ccc(CNC(=O)c2cc(-c3c[nH]c4cccc(F)c34)nc3ccccc23)cc1 [Example 79] | > 25 µg/mL | > 25 µg/mL | –
O=C(O)c1cc(-c2c[nH]c3ccc(Br)cc23)nc2c(Cl)cccc12 [Example 141] | > 25 µg/mL | > 25 µg/mL | –
NCCCNC(=O)c1cc(-c2c[nH]c3ccc(Br)cc23)nc2ccccc12 [compound 3] | < 25 µg/mL | < 25 µg/mL | –
COc1ccc2[nH]cc(-c3ccc4ccccc4n3)c2c1 [Example 185] | < 25 µg/mL | > 25 µg/mL | –
O=C(NCCN1CCCC1)c1cc(-c2c[nH]c3ccc(Br)cc23)nc2ccccc12 [Example 44] | < 25 µg/mL | < 25 µg/mL | –
O=C(CCC(=O)N1CCN(C(=O)c2cc(-c3c[nH]c4ccc(Br)cc34)nc3ccccc23)CC1)N1CCN(C(=O)c2cc(-c3c[nH]c4ccc(Br)cc34)nc3ccccc23)CC1 [Example 62] | > 25 µg/mL | > 25 µg/mL | –
O=C(O)c1cc(-c2c[nH]c3ccccc23)nc2c(Cl)cccc12 [Example 156] | > 25 µg/mL | > 25 µg/mL | –
NCc1ccc(CNC(=O)c2cc3ccccc3c(-c3c[nH]c4ccc(Br)cc34)n2)cc1 [Example 13] | < 7 µg/mL | < 25 µg/mL | –
NCCCCCNC(=O)c1cc(-c2c[nH]c3ccc(Br)cc23)nc2ccccc12 [Example 41] | < 25 µg/mL | < 25 µg/mL | –
NCc1ccc(CNC(=O)c2cc(-c3c[nH]c4ccc(Br)cc34)nc3ccc(Br)cc23)cc1 [Example 120] | < 7 µg/mL | < 7 µg/mL | –
CN(C)Cc1ccc(CNC(=O)c2cc(-c3c[nH]c4ccc(Br)cc34)nc3ccccc23)cc1 [Example 92] | < 25 µg/mL | < 25 µg/mL | –
Cc1c(-c2ccc3cc(Cl)ccc3n2)c2ccccc2n1C [Example 215] | – | – | MIC ([1]; overnight 37° C.): < 7 µg/mL; MIC ([2]; VREF, overnight 37° C.): < 25 µg/mL
NC(=O)c1cc(-c2c[nH]c3ccc(Br)cc23)nc2ccc(C#CCN3CCCCC3)cc12 [Example 137] | < 25 µg/mL | < 25 µg/mL | –
O=C(c1cc(-c2c[nH]c3ccc(Br)cc23)nc2ccc(Cl)cc12)N1CCCNCC1 [Example 135] | < 7 µg/mL | < 7 µg/mL | –
O=C(c1cc(-c2c[nH]c3ccc(Br)cc23)nc2ccccc12)N1CCNCC1 [compound 11] | < 25 µg/mL | < 25 µg/mL | –
NCc1ccc(CNC(=O)c2cc(-c3c[nH]c4ccc(Br)cc34)nc3cc4c(cc23)OCCO4)cc1 [Example 150] | > 25 µg/mL | > 25 µg/mL | –
CN(CC#Cc1cccc2c(C(=O)NCc3ccc(CN)cc3)cc(-c3c[nH]c4ccc(Br)cc34)nc12)C1CCCCC1 [Example 265] | – | – | MIC ([1]; overnight 37° C.): < 7 µg/mL; MIC ([2]; VREF, overnight 37° C.): < 7 µg/mL
N#Cc1ccc2[nH]cc(-c3ccc4ccccc4n3)c2c1 [Example 190] | > 25 µg/mL | > 25 µg/mL | –
CNC1CCN(C(=O)c2cc(-c3c[nH]c4ccc(Br)cc34)nc3ccccc23)CC1 [Example 31] | < 25 µg/mL | < 25 µg/mL | –
NCCCNC(=O)c1cc(-c2c[nH]c3ccccc23)nc2ccccc12 [compound 1] | > 25 µg/mL | > 25 µg/mL | –
NCc1ccc(CNC(=O)c2cc(-c3c[nH]c4ccc(F)cc34)nc3ccccc23)cc1 [Example 15] | < 25 µg/mL | > 25 µg/mL | –
NCc1ccc(CNC(=O)c2cc(-c3c[nH]c4ccc(Br)cc34)nc3ccc(C#CCN4CCC(Cc5ccccc5)CC4)cc23)cc1 [Example 75] | > 25 µg/mL | > 25 µg/mL | –
NCc1ccc(CNC(=O)c2cc(-c3c[nH]c4cc(F)ccc34)nc3ccccc23)cc1 [Example 80] | < 25 µg/mL | < 25 µg/mL | –
Cc1ccc2[nH]cc(-c3ccc4cc(Cl)ccc4n3)c2c1 [Example 198] | > 25 µg/mL | > 25 µg/mL | –
